Experimental data as given in patent US20100297256A1, “METHODS AND COMPOSITIONS FOR INHIBITING INTEGRINS USING TELLURIUM-CONTAINING COMPOUNDS” (priority 2007, published 2010).

Legend:
[1] = test system: chick chorioallantoic membrane; assay: Chick chorioallantoic membrane (CAM) angiogenesis assay; assay type: in vivo; conditions: 5 μg/ml combined with ECGS 50 μg/ml, 3 days
Experimental: Collagen I solution was prepared by mixing 1.8 ml of collagen I, 4.14 μl of […] NaOH and 0.2 ml of 10×PBS/200 mM HEPES (pH 7.4). 10 μl of a mixture containing 0.1 ml of the collagen I solution and 0.2 ml of PBS either with or without AS101 (5 μg/ml) or SAS (5 μg/ml) was loaded onto a quarter piece of a Thermonox disc and gelled by warming to room temperature for 15 minutes. The disc was then applied to the chorioallantoic membrane of a 10-days-old embryo, following preparation of the eggs by removing 2 ml of albumin from the 3-days-old embryo and by “opening a window” to the 7-day-old embryo. ECGS (50 μg/ml) in PBS was used to induce angiogenesis and 5 μg/ml of AS101 or SAS were mixed with ECGS. After 3-days incubation, the negative or positive response was assessed under a binocular. Positive response, namely the appearance of a typical spokewheel pattern of new blood vessels around the loaded samples, was determined by a blinded observer. Assays for each test sample were carried out three times, and each experiment contains 10 to 12 eggs/data point.

B16F10 melanoma cells = assay: Tumor growth in vivo on CAM; design: species or system murine; conditions: 5 μg daily, 7 days
Experimental: B16F10 melanoma cells (10^6 cells/[…]) in Matrigel were added directly onto the CAM of the 7-days-old embryo (embryos were prepared as described hereinabove). AS101 and SAS (5 μg) were added daily. After a 7-days incubation, with treatment performed each day (PBS, AS101 or SAS), tumors were excised and weighed. Formalin-fixed tumor tissues were paraffin embedded, sectioned at 10 μm, and stained with hematoxylin and eosin (H&E) for examination of tumor cell proliferation and vessel density.

[2] = test system: SVEC4-10 endothelial cells; assay: Tube formation assay, SVEC4-10; assay type: cell-based, murine; conditions: SVEC4-10 on Matrigel, 3 hours
Experimental: Plates (48 wells) were coated with 150 μl of Matrigel and incubated at 37° C. for 1 hour to promote gelling. Svec4-10 or HUVEC cells (40,000 cells) in 0.5 ml of serum-free DMEM with varying concentration of AS101 or SAS were added to each well. For positive control, ECGS was added at a concentration of 50 μg/ml. All samples were performed in sextuplicate. After 3 hours incubation, the plates were fixed with methanol and stained with crystal violet. Randomly chosen fields were photographed and density of tube formation was analyzed by imageJ.

SVEC4-10 cells [3] = assay: Boyden chamber migration assay; assay type: cell-based, murine; conditions: 6 hours
Experimental: Migration assay was performed in a 48-well microchemotaxis chamber. Polyester membranes with 8 μm pores were coated with 0.1 mg/ml of collagen I in DMEM and then dried for 1 hour. B16F10 and Svec4-10 cells were harvested using TE and resuspended in DMEM containing 0.1% BSA. The bottom chamber was loaded with Svec4-10 supernatant/DMEM (1:5) containing varying concentration of AS101 or SAS and the filter was laid over the treatment solutions. Non-diluted Svec4-10 supernatant was used as a positive control. The upper wells were then loaded with 30,000 cells, the chamber was incubated at 37° C. for 6 hours and the filters were fixed and stained using Diff-Quick. The cells that migrated through the filter were quantified by counting the center of each well in a 36-box grid at ×20 using an Olympic CK2 microscope. Each condition was studied in triplicate wells, and each experiment was performed three times.

SVEC4-10 cells [4] = assay: "Scratch" wound closure assay; assay type: cell-based, murine; conditions: 1 μg/ml, ECGS 100 μg/ml, cells counted at 12 hours
Experimental: Confluent Svec4-10 monolayers in 6 mm plates were “scratch” wounded using the tip of a universal blue pipette tip and rinsed with PBS. AS101 or SAS (1 μg/ml final concentration) or ECGS (100 μg/ml) were added to the plates containing serum-free DMEM. The plates were incubated at 37° C. and fixed and stained at several time points. Migrated cells at 12 hours were counted along the scratch. The centers of plates at all times were photographed for presented data. The experiment was repeated three times.

FAK = assay: Western blot analysis of FAK phosphorylation; assay type: cell-based, murine
Experimental: Cell lysates (20 μg) were diluted with an equal volume of 2×SDS (sodium dodecyl sulfate) sample buffer and separated according to size by SDS-PAGE (SDS-polyacrylamide gel electrophoresis). Proteins were transferred to a polyvinylidene difluoride membrane via electroelution by a transfer system (Bio-Rad), blocked for 1 hour by blocking buffer (5% skim milk in PBS with 0.05% Tween 20) and incubated for 2 hours in room temperature or for overnight in 4° C. with primary antibodies diluted in blocking buffer. Membranes were washed several times in PBS with 0.05 Tween (PBS-T) and incubated for 1 hour with horseradish peroxidase-conjugated anti-mouse or anti-rabbit antibodies (diluted 1:10,000). Proteins were detected by ECL Western Blotting Detection Reagents according to the instructions of the manufacturer (PIERCE).

integrin α subunits = assay: Multiple anti-integrin antibody binding assay, α subunits; assay type: cell-based; conditions: SVEC cells
Experimental: The specificity of tellurium-containing compounds to integrins was tested by examining the effect of AS101 and SAS on the attachment of SVEC cells to specific anti-integrin antibodies. Commercially available kits (R&D Biosystems) with anti-integrin coated wells were used, and attachment was determined according to the manufacturer's instructions.

HL-60 cells = assay: AML chemotherapy resistance assay (XTT cell viability), HL-60; assay type: cell-based, human
Experimental: (§1) Cell viability was determined using a cell proliferation kit (Roche), which colors viable cells using the tetrazolium salt XTT.
(§2) 2×10^4 per 200 μl cells were seeded in 96-microwell flat bottom plates. After 24 hours, the tested compound(s) (e.g., AS101, ARA-C, DTNB, anti-VLA-4 antibody) was added, and the cells were incubated overnight with the tested compound(s). The XTT solution was then added and the cells were incubated for 4 hours at 37° C. Cell viability was than evaluated by measuring absorbance at 450 nm using a Microplate Spectrophotometer (Spectra MAX Plus, Molecular Devices).

U937 cells = assay: AML chemotherapy resistance assay (XTT cell viability), U937; assay type: cell-based, human
Experimental: as §1, §2
The role of VLA protein in fibronectin-induced resistance to chemotherapy was investigated by performing a chemotherapy resistance assay, as described hereinabove, with anti-VLA-4 and anti-VLA-5 antibodies. U937 cells were grown in fibronectin- and BSA-coated plates. Antibodies were added at a concentration of 1 μg/ml.

[5] = rats, intravenous and intramuscular administration; cited from earlier work
[6] = B16F10, 5 to 10 minutes incubation
[7] = LAN-1, 5 to 10 minutes incubation
[8] = SVEC4-10, 5 to 10 minutes incubation
[9] = HL-60, fibronectin-coated plates, 0.5 or 1 μg/ml AS101

Row | Compound | angiogenic capability of ECGS [1] | tumor growth and weight on chorioallantoic membrane (B16F10 melanoma cells) | number of tubes formed [2] | directional migration of murine endothelial cells through the membrane (SVEC4-10 cells [3]) | ECGS-induced scratch wound repair by cell migration (SVEC4-10 cells [4]) | ECGS-induced FAK phosphorylation at Y397 (FAK; [6]) | ECGS-induced FAK phosphorylation at Y397 (FAK; [7]) | ECGS-induced FAK phosphorylation at Y397 (FAK; [8]) | cell attachment to antibodies against integrin α subunits (integrin α subunits) | sensitization to daunorubicin-induced cell death (HL-60 cells; HL-60, BSA-coated or VCAM-1-coated plates) | sensitization to ARA-C-induced cell death (HL-60 cells; [9]) | sensitization to daunorubicin-induced cell death (HL-60 cells; [9]) | effect on viability of cells exposed to ARA-C (U937 cells; U937, BSA-coated plates) | additional sensitization to ARA-C in cells sensitized by anti-VLA-4 antibodies (U937 cells; U937, fibronectin-coated plates) | sensitization to ARA-C-induced cell death (U937 cells; U937, fibronectin-coated plates, 0.5 or 1 μg/ml AS101) | effect on viability of cells exposed to ARA-C, alone or in combination (U937 cells; U937 on BSA) | sensitization to ARA-C, combination of AS101 and DTNB vs either alone (U937 cells; U937 on fibronectin) | LD50 relative to the immunologically effective dose [5]
1 | Cl[TeH]1(Cl)(Cl)OCCO1 [AS101, ammonium trichloro(dioxyethylene-O,O′)tellurate] | reduced the angiogenic capability of ECGS to baseline levels | reduced tumor growth and weight | reduced the number of tubes formed | inhibited the directional migration | reduce ECGS-induced scratch wound repair | inhibition of ECGS-induced FAK phosphorylation at Y397 | inhibition of ECGS-induced FAK phosphorylation at Y397 | inhibition of ECGS-induced FAK phosphorylation at Y397 | little if any inhibition | no visible effect | sensitized HL-60 cells to ARA-C-induced cell death on fibronectin-coated plates | sensitized HL-60 cells to daunorubicin-induced cell death on fibronectin-coated plates in a dose-dependent manner | neither AS101 nor anti-VLA-4 antibodies had an effect | no additional effect | sensitized U937 cells to ARA-C-induced cell death on fibronectin-coated plates | no effect either alone or in combination | did not sensitize U937 cells grown on fibronectin to a greater degree than did either AS101 or DTNB alone | 500-1000 folds
2 | O=C1O[Te]23OC(=O)C(O2)C2O[Te]4(OC(=O)C(O4)C1O3)OC2=O [SAS, [TeO4(COCH)2]2] | reduced the angiogenic capability of ECGS to baseline levels | reduced tumor growth and weight | reduced the number of tubes formed | inhibited the directional migration | reduce ECGS-induced scratch wound repair | inhibition of ECGS-induced FAK phosphorylation at Y397 | inhibition of ECGS-induced FAK phosphorylation at Y397 | inhibition of ECGS-induced FAK phosphorylation at Y397 | little if any inhibition |  |  |  |  |  |  |  |  | 
